Measurements: patent US20170362283A1, “NISIN-BASED COMPOUNDS AND USE THEREOF IN THE TREATMENT OF BACTERIAL INFECTIONS” (UNIVERSITEIT UTRECHT HOLDING B.V., priority 2015, published 2017)
In brackets after ≈: the same amount, converted by molar mass. Like-named read-outs stand apart in the source and are kept apart here.

Columns and labels:
MRSA USA300 = assay type: cell-based, Staphylococcus aureus
Procedure: (§1) Determining the MIC value is a standard technique well known to the skilled person, in particular the MIC value can be measured using method M07-A9 (CLSI standard, January 2012, Vol. 32, No. 2, “Methods for Dilution Antimicrobial Susceptibility Tests for Bacteria That Grow Aerobically”).
(§2) Different microorganisms (from glycerol stock) were plated out on blood agar and incubated at 37° C. for 24 hours. A colony was selected and 2×5 mL of TSB was inoculated. The samples and a sterile control were cultured for 16-20 hours at 37° C. Comparative compound B is nisin acting as a control. Comparative compound C is vancomycin, also acting as a control. Comparative compounds A, D and E are also control compounds not part of the present invention.
(§3) The overnight cultures were diluted to 0.5×10^6 CFU in TSB. 50 μL of the bacterial solution was added to each well and the plates were sealed with an adhesive membrane and incubated at 37° C. for 16 hours. The next day, the plates were visually inspected for bacterial growth.

MRSA WKZ2 = assay type: cell-based, Staphylococcus aureus
Procedure: as §1, §2, §3

B. subtilis = test system: B. subtilis
Procedure: as §1
as §2, with “Comparative compound C is vancomycin, also acting as a control.” left out
as §3

S. aureus = test system: S. aureus
Procedure: as §1
as §2, with “Comparative compound C is vancomycin, also acting as a control.” left out
as §3

E. coli = test system: E. coli
Procedure: as §1
as §2, with “Comparative compound C is vancomycin, also acting as a control.” left out
as §3

M. luteus = assay type: cell-based
Procedure: as §1, §2, §3

VRE 155 = assay type: cell-based
Procedure: as §1, §2, §3

erythrocytes = assay: Hemolysis assay; settings: human erythrocytes, 1 h, up to the highest concentration tested (64 μg/mL)
Procedure: Human whole blood was centrifuged at 600×g for 15 min and levels of plasma and hematocrit were marked on the tube. Plasma was removed and the erythrocytes washed 3× with PBS (centrifuging at 600×g for 15 mins). After discarding the supernatant, the packed cells were stored on ice. 100 μL of the peptides (128 μg/mL in PBS, 2% DMSO) as well as a control solution comprised of 2% DMSO in PBS were added to the top row of a polypropylene, round-bottom 96 well plate and 50 μL of PBS to the rest of the wells. The peptides and the DMSO control solutions were then diluted serially down the rows. 200 μL of the packed cells were added to PBS (10 mL) and 50 μL of this suspension was added to each well. A column with DI water containing 0.1% Triton X-100 was used as the 100% lysis control, and the column containing the serially-diluted PBS (1.0% DMSO) control served as the 0% lysis reference. The cells were incubated at 37° C. for 1 h. After incubation the plates were centrifuged (800×g, 5 min) and 25 μL of the supernatant was added to 100 μL DI water in a flat-bottom plate (polystyrene). The absorption at 414 nm was recorded to measure the amount of free hemoglobin.

**Q.** Which results are given for `C=C1NC(=O)[C@H]([C@@H](C)CC)NC(=O)[C@H](NC(=O)C(=CC)NC(=O)[C@@H](N)[C@@H](C)CC)CSC[C@@H](C(=O)N[C@H]2C(=O)N3CCC[C@H]3C(=O)NCC(=O)N[C@H](C(=O)N[C@@H](CCCCN)C(=O)O)CS[C@H]2C)NC(=O)[C@H](CC(C)C)NC1=O` [Compound A, nisin [1-12], reference compound]?
**A.** MIC values MRSA USA300 (MRSA USA300; duplicate experiments): >128 µg/mL; MIC values MRSA WKZ2 (MRSA WKZ2; duplicate experiments): >128 µg/mL; MIC values B. subtilis (B. subtilis; duplicate experiments): >128 µg/mL; MIC values S. aureus (S. aureus; duplicate experiments): >128 µg/mL; MIC values E. coli (E. coli; duplicate experiments): >128 µg/mL; MIC values M. luteus (M. luteus; duplicate experiments): 8 to 16 µg/mL; MIC values VRE 155 (VRE 155; duplicate experiments): >128 µg/mL

**Q.** Which “MIC values B. subtilis” value (B. subtilis) does the source give for `C=C1NC(=O)[C@H]([C@@H](C)CC)NC(=O)[C@H](NC(=O)C(=CC)NC(=O)[C@@H](N)[C@@H](C)CC)CSC[C@@H](C(=O)N[C@H]2C(=O)N3CCC[C@H]3C(=O)NCC(=O)N[C@H](C(=O)N[C@@H](CCCCN)C(=O)NCCCn3cc(CCC(=O)NC/C=C(\C)CC/C=C(\C)CCC=C(C)C)nn3)CS[C@H]2C)NC(=O)[C@H](CC(C)C)NC1=O` [Compound (24) with R1-group (d)] here?
**A.** 32 µg/mL (≈ 20.9 µM)

**Q.** And the “MIC values S. aureus” value (S. aureus)?
**A.** 64 µg/mL (≈ 41.7 µM)

**Q.** And the “MIC values E. coli” value (E. coli)?
**A.** >64 µg/mL

**Q.** What about the “MIC values M. luteus” value (M. luteus) of the same molecule?
**A.** 2 to 4 µg/mL

**Q.** Which “MIC values B. subtilis” value (B. subtilis; duplicate experiments) does the source give for `C=C1NC(=O)[C@H]([C@@H](C)CC)NC(=O)[C@H](NC(=O)C(=CC)NC(=O)[C@@H](N)[C@@H](C)CC)CSC[C@@H](C(=O)N[C@H]2C(=O)N3CCC[C@H]3C(=O)NCC(=O)N[C@H](C(=O)N[C@@H](CCCCN)C(=O)NCCCCCC)CS[C@H]2C)NC(=O)[C@H](CC(C)C)NC1=O` [(2)] here?
**A.** 32 µg/mL (≈ 25.9 µM)

**Q.** What about the “MIC values S. aureus” value (S. aureus; duplicate experiments) of the same molecule?
**A.** >64 µg/mL

**Q.** And the “MIC values E. coli” value (E. coli; duplicate experiments)?
**A.** >64 µg/mL

**Q.** And the “MIC values M. luteus” value (M. luteus; duplicate experiments)?
**A.** 2 µg/mL (≈ 1.62 µM)

**Q.** What does the source list for `C=C1NC(=O)[C@H]([C@@H](C)CC)NC(=O)[C@H](NC(=O)C(=CC)NC(=O)[C@@H](N)[C@@H](C)CC)CSC[C@@H](C(=O)N[C@H]2C(=O)N3CCC[C@H]3C(=O)NCC(=O)N[C@H](C(=O)N[C@@H](CCCCNC(C)=O)C(=O)NCCCCCCCCCCCC)CS[C@H]2C)NC(=O)[C@H](CC(C)C)NC1=O` [Compound (20)]?
**A.** MIC values MRSA USA300 (MRSA USA300; duplicate experiments): >64 µg/mL; hemolysis (erythrocytes): no detectable hemolysis; MIC values VRE 155 (VRE 155; duplicate experiments): 4 µg/mL (≈ 2.94 µM)

**Q.** `C=C1NC(=O)[C@H]([C@@H](C)CC)NC(=O)[C@H](NC(=O)C(=CC)NC(=O)[C@@H](N)[C@@H](C)CC)CSC[C@@H](C(=O)N[C@H]2C(=O)N3CCC[C@H]3C(=O)NCC(=O)N[C@H](C(=O)N[C@@H](CCCCN)C(=O)NCCCn3cc(CNC(=O)c4ccc(-c5ccc(-c6ccccc6)cc5)cc4)nn3)CS[C@H]2C)NC(=O)[C@H](CC(C)C)NC1=O` [Compound (24) with R1-group (e)] was tested. Which “MIC values MRSA USA300” value (MRSA USA300; USA300) did it give?
**A.** 8 µg/mL (≈ 5.18 µM)

**Q.** And the “MIC values MRSA WKZ2” value (MRSA WKZ2; WKZ2)?
**A.** 8 µg/mL (≈ 5.18 µM)

**Q.** What about the “MIC values B. subtilis” value (B. subtilis) of the same molecule?
**A.** 4 µg/mL (≈ 2.59 µM)

**Q.** What about the “MIC values S. aureus” value (S. aureus) of the same molecule?
**A.** 8 µg/mL (≈ 5.18 µM)

**Q.** And the “MIC values E. coli” value (E. coli)?
**A.** >64 µg/mL

**Q.** And the “MIC values M. luteus” value (M. luteus)?
**A.** 2 µg/mL (≈ 1.3 µM)

**Q.** What about the “MIC values VRE 155” value (VRE 155) of the same molecule?
**A.** 8 µg/mL (≈ 5.18 µM)
